pIC50: −log10 of the molar value.
What was measured:
[1] = biological target: Cathepsin B (Homo sapiens, UniProt P07858); assay: Inhibition of human liver cathepsin B after 5 mins by microplate reader analysis
[2] = biological target: Procathepsin L (Homo sapiens, UniProt P07711); assay: Inhibition of human liver cathepsin L after 5 mins by microplate reader analysis
[3] = system: DU-145; assay: Cytotoxicity against human DU145 cells after 48 hrs by SRB assay; assay type: functional; details: DU-145, 48 h
[4] = system: NCI-H460; assay: Cytotoxicity against human NCI-H460 cells after 48 hrs by SRB assay; assay type: functional; details: NCI-H460, 48 h

Chain of Procathepsin L (P07711 whole entry): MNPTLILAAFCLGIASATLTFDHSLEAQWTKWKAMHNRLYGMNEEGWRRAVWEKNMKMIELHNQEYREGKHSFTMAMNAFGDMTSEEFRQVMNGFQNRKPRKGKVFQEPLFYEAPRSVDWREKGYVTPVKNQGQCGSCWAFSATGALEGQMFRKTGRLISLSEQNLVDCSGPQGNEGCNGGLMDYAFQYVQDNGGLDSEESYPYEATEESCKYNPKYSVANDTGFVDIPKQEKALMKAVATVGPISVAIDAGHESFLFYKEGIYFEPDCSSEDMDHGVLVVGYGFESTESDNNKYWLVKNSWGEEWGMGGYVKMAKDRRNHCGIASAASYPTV

Row | SMILES | pIC50 [1] | pIC50 [2] | GI50 [3] | GI50 [4]
1 | NC(=S)NN=C1c2cc(Br)ccc2-c2ccc(Br)cc21 | < 5.00 | < 5.00 | – | –
2 | NC(=S)N/N=C(/c1ccccc1)c1cccc(O)c1 | < 5.00 | < 5.00 | – | –
3 | NC(=S)N/N=C(\c1cccc(O)c1)c1cccc(Br)c1 | < 5.00 | 6.88 | 21.6 µM | 23.3 µM
4 | NC(=S)N/N=C(/c1ccccc1)c1cccs1 | < 5.00 | < 5.00 | – | –
5 | NC(=S)N/N=C(/c1cccc(Br)c1)c1sccc1Br | < 5.00 | 6.43 | – | –
6 | NC(=S)N/N=C(/c1cccc(Br)c1)c1cc(Br)cs1 | < 5.00 | 6.09 | – | –
7 | NC(=S)N/N=C(/c1cccc(Br)c1)c1ccc(Br)s1 | < 5.00 | 6.03 | – | –
8 | NC(=S)N/N=C(/c1ccccc1)c1cccnc1 | < 5.00 | < 5.00 | – | –
9 | NC(=S)N/N=C(\c1cccnc1)c1cccc(Br)c1 | < 5.00 | 6.00 | – | –
10 | NC(=S)N/N=C(\c1ccc(Br)nc1)c1cccc(Br)c1 | < 5.00 | < 5.00 | – | –
11 | NC(=S)N/N=C(/c1cccc(Br)c1)c1cccnc1Br | < 5.00 | < 5.00 | – | –
12 | NC(=S)N/N=C(/c1cccc(Br)c1)C1CCCCC1 | < 5.00 | < 5.00 | – | –
13 | NC(=S)N/N=C(\Cc1ccccc1)c1ccccc1 | < 5.00 | 5.27 | – | –
14 | NC(=S)NN=C1c2ccccc2-c2ccccc21 | < 5.00 | < 5.00 | – | –
15 | CC(C)(C)[Si](C)(C)Oc1ccc(/C(=N\NC(N)=S)c2cccc(Br)c2)cc1Br | < 5.00 | < 5.00 | – | –
16 | NC(=S)N/N=C(/c1cccc(Br)c1)c1cc(O)cc(Br)c1 | < 5.00 | 6.63 | – | –
17 | CC(C)(C)[Si](C)(C)Oc1cc(Br)cc(/C(=N\NC(N)=S)c2cccc(Br)c2)c1 | < 5.00 | < 5.00 | – | –
18 | NC(=S)N/N=C(/c1cccc(Br)c1)c1cccc(Br)c1O | < 5.00 | < 5.00 | – | –
19 | COc1ccc(/C(=N\NC(N)=S)c2cc(OC)c(OC)c(OC)c2)cc1O | 5.85 | 5.44 | – | –
20 | NC(=S)N/N=C(/c1cccc(Br)c1)c1ccc2c(c1)CCCC2 | < 5.00 | 5.02 | – | –
21 | CC(=O)Oc1cccc(/C(=N\NC(N)=S)c2cccc(Br)c2)c1 | 5.80 | 6.82 | – | –
22 | NC(=S)N/N=C(/c1cccc(Br)c1)c1cccc(OCc2ccccc2)c1 | < 5.00 | < 5.00 | – | –
23 | CC(C)(C)[Si](C)(C)Oc1cccc(/C(=N\NC(N)=S)c2cccc(Br)c2)c1 | < 5.00 | < 5.00 | – | –
24 | NC(=S)N/N=C(/c1cccc(Br)c1)c1ccc(O)c(Br)c1 | 5.02 | 6.90 | – | –
25 | NC(=S)NN=C(c1ccccc1)c1ccccc1 [BENZOPHENONE-THIOSEMICARBAZONE] | < 5.00 | < 5.00 | – | –

— ChEMBL document CHEMBL1268983, “Functionalized benzophenone, thiophene, pyridine, and fluorene thiosemicarbazone derivatives as inhibitors of cathepsin L” (Bioorg Med Chem Lett, 2010)
